# pIC50: −log10 of the molar value. Read-outs that look alike come from different tables or passages of the source.
# Assays:
# PI3K β = biological target: T1, PI3K β (Homo sapiens, UniProt P42338); assay: In vitro PI3 kinase enzyme assay (beta), ATP loss, bioluminescence; type: biochemical; settings: read-out: PI3Kβ ATP loss IC50;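 note: purified p110β/p85 heterodimer with PtdIns(4,5)P2 as acceptor, incubated at room temperature, leftover ATP read by luminescence, inhibition scaled to compound-free wells with and without enzyme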
# T1 construct: Full length p110 subunits of PI3K α, β and δ, N-terminally labeled with polyHis tag; polyHis (N); made in house; host or cells: Sf9 insect cells (baculovirus)
# T1 sequence (P42338 whole entry): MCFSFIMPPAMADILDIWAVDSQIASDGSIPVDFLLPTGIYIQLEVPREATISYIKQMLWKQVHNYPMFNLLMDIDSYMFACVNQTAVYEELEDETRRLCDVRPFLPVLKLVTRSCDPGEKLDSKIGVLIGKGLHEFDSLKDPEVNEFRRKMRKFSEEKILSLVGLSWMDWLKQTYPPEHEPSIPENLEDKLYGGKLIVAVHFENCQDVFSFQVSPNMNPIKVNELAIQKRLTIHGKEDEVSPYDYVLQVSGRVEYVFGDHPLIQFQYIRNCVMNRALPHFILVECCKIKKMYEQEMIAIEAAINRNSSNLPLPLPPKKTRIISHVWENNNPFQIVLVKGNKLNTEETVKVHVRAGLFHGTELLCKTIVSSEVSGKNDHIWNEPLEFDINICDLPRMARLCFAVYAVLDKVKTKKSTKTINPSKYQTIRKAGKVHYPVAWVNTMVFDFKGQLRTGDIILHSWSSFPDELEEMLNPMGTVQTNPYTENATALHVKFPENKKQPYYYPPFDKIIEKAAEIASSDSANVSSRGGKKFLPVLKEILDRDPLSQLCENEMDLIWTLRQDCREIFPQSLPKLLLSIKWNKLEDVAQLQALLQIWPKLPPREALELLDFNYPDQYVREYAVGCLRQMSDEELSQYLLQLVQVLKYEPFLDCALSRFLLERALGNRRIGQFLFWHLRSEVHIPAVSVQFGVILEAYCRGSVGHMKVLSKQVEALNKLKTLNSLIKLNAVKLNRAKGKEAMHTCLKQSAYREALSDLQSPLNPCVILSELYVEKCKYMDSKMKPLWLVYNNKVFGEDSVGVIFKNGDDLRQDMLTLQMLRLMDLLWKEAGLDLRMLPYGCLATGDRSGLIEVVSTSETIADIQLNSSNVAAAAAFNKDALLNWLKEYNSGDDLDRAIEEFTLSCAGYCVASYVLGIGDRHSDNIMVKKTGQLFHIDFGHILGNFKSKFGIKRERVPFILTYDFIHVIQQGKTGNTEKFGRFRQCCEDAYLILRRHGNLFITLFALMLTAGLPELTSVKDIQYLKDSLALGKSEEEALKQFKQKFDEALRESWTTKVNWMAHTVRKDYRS
# T1 sequence (P27986 whole entry partner): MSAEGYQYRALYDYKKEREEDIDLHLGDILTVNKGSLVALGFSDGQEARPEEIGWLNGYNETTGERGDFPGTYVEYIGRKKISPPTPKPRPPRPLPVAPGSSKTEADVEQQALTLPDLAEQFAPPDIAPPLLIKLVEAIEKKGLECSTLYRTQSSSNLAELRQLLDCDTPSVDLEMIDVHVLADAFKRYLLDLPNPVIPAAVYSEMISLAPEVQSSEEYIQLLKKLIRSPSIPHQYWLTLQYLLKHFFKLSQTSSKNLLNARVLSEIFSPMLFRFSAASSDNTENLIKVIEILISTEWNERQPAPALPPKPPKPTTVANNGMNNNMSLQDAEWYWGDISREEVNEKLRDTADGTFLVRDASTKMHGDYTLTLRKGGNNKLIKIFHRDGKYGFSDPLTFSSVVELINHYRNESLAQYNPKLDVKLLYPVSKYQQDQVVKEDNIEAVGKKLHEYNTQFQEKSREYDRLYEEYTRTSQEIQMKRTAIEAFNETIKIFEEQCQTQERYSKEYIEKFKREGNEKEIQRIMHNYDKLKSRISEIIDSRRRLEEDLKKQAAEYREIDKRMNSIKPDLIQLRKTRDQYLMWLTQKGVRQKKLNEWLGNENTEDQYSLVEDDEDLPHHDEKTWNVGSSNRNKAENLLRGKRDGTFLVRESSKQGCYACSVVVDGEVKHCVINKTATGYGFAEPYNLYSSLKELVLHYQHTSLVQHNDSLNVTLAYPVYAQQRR
# [1] = tested on: phosphorylation of Serine 473 in Akt, HCT 116 human colon carcinoma cells; assay: Cell-based phospho-AKT Ser473 assay (MSD sandwich immunoassay, IGF-1 stimulated); settings: Homo sapiens
# Outline: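 Akt Ser473 phosphorylation was measured by MSD electrochemiluminescent sandwich immunoassay in lysates of HCT116 cells (16,000 cells/well). Cells received a compound dilution series for 2 h at 37 °C before a 15 min IGF-1 (100 ng/ml) stimulus, with IC50 calculated from the dose-response.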
# PI3K α = biological target: T2, PI3K α (Homo sapiens, UniProt P42336); assay: In vitro PI3 kinase enzyme assay (alpha), ATP loss, bioluminescence; type: biochemical; settings: read-out: PI3Kα ATP loss IC50;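 note: purified p110α/p85 heterodimer acting on PtdIns(4,5)P2 at room temperature, remaining ATP read by luminescence, inhibition scaled between compound-free wells with and without enzyme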
# T2 construct: Full length p110 subunits of PI3K α, β and δ, N-terminally labeled with polyHis tag; polyHis (N); made in house; host or cells: Sf9 insect cells (baculovirus)
# T2 sequence (P42336 whole entry, species assumed): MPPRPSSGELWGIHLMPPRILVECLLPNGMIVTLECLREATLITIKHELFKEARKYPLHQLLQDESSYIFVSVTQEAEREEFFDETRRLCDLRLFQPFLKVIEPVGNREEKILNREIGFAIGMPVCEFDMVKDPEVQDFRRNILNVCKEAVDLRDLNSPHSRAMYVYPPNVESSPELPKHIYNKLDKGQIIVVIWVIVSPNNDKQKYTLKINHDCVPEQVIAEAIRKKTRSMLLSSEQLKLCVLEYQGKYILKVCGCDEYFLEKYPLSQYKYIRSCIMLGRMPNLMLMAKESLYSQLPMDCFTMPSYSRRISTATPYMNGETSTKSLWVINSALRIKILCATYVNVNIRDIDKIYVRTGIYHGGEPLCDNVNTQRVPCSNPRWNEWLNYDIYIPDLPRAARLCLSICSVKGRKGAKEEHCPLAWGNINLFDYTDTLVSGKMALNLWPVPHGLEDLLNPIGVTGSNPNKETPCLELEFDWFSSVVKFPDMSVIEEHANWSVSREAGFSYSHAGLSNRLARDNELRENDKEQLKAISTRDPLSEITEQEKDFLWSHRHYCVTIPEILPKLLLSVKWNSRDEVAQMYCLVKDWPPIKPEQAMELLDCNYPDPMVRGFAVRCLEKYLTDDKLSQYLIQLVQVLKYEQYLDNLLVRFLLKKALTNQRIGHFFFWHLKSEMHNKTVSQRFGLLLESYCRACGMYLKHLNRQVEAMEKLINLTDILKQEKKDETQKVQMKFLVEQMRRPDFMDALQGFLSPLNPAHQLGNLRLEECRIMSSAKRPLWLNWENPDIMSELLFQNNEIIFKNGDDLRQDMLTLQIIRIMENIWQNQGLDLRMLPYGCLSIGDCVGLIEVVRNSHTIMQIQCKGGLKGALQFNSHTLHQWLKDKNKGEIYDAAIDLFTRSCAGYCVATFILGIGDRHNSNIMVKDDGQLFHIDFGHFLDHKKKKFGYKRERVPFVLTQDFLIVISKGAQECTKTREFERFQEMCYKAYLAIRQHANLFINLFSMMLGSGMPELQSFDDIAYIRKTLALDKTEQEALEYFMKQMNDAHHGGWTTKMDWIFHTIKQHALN
# T2 sequence (P27986 whole entry partner, species assumed): as the sequence (P27986 whole entry partner) above
# [2] = HCT-116, HCT 116 cells, read-out: HCT 116 pAKT IC50
pIC50 (PI3K β),"pIC50 [1, 2]",pIC50 (PI3K α),Compound,"pIC50 ([1]; HCT-116, read-out: HCT 116 pAKT IC50)"
5.54,6.21,6.51,"CN(C)CC(=O)Nc1nc2ccc(-c3cnc(Cl)c(N(C)C)c3)cc2s1 [Example 275, N-(6-(6-Chloro-5-(dimethylamino)pyridin-3-yl)benzo[d]thiazol-2-yl)-2-(dimethylamino)acetamide]",–
6.33,6.63,7.08,"CC(=O)Nc1nc2ccc(-c3cncc(OCC#N)c3)cc2s1 [Example 288, N-(6-(5-(Cyanomethoxy)pyridin-3-yl)benzo[d]thiazol-2-yl)acetamide]",–
5.49,6.35,7.02,"CC(=O)Nc1nc2ccc(-c3cncc(F)c3)cc2s1 [Example 289, N-(6-(5-Fluoropyridin-3-yl)benzo[d]thiazol-2-yl)acetamide]",–
7.03,7.00,8.30,"CC(=O)Nc1nc2ccc(-c3cnc(Cl)c(O)c3)cc2s1 [Example 301, N-(6-(6-chloro-5-hydroxypyridin-3-yl)benzo[d]thiazol-2-yl)acetamide]",–
6.80,6.80,8.07,"CC(=O)Nc1nc2ccc(-c3cnc(C(F)(F)F)c(O)c3)cc2s1 [Example 302, N-(6-(5-hydroxy-6-(trifluoromethyl)pyridin-3-yl)benzo[d]thiazol-2-yl)acetamide]",–
7.91,8.77,8.70,"CC(=O)Nc1nc2ccc(-c3cnc(Cl)c(OC(C)=O)c3)cc2s1 [Example 303, 5-(2-acetamidobenzo[d]thiazol-6-yl)-2-chloropyridin-3-yl acetate]",–
7.76,6.94,8.17,"Nc1nc2ccc(-c3cnc(Cl)c(NS(=O)(=O)c4cccc(OC(F)F)c4)c3)cc2s1 [Example 307, N-(5-(2-amino-1,3-benzothiazol-6-yl)-2-chloro-3-pyridinyl)-3-(difluoromethoxy)benzenesulfonamide]",–
7.97,6.30,8.59,"Nc1nc2ccc(-c3cnc(Cl)c(NS(=O)(=O)c4ccc(C(F)(F)F)cc4Cl)c3)cc2s1 [Example 308, N-(5-(2-amino-1,3-benzothiazol-6-yl)-2-chloro-3-pyridinyl)-2-chloro-4-(trifluoromethyl)benzenesulfonamide]",–
7.43,6.30,7.83,"Nc1nc2ccc(-c3cnc(Cl)c(NS(=O)(=O)c4ccc(F)cc4Cl)c3)cc2s1 [Example 309, N-(5-(2-amino-1,3-benzothiazol-6-yl)-2-chloro-3-pyridinyl)-2-chloro-4-fluorobenzenesulfonamide]",–
7.76,6.40,8.12,"Nc1nc2ccc(-c3cnc(Cl)c(NS(=O)(=O)c4ccc(Cl)cc4Cl)c3)cc2s1 [Example 310, N-(5-(2-amino-1,3-benzothiazol-6-yl)-2-chloro-3-pyridinyl)-2,4-dichlorobenzenesulfonamide]",–
7.31,6.65,7.77,"Nc1nc2ccc(-c3cnc(Cl)c(NS(=O)(=O)c4ccc(F)cc4F)c3)cc2s1 [Example 311, N-(5-(2-amino-1,3-benzothiazol-6-yl)-2-chloro-3-pyridinyl)-2,4-difluorobenzenesulfonamide]",–
7.60,6.46,8.22,"Cc1cc(F)ccc1S(=O)(=O)Nc1cc(-c2ccc3nc(N)sc3c2)cnc1Cl [Example 312, N-(5-(2-amino-1,3-benzothiazol-6-yl)-2-chloro-3-pyridinyl)-4-fluoro-2-methylbenzenesulfonamide]",–

# Further lines, the molecule ahead of its results:
Compound,pIC50 (PI3K β),"pIC50 [1, 2]",pIC50 (PI3K α),"pIC50 ([1]; HCT-116, read-out: HCT 116 pAKT IC50)"
"CC(=O)Nc1nc2ccc(-c3cncc(N(C)S(=O)(=O)c4ccc(F)c(F)c4)c3)cc2s1 [Example 222, N-(6-(5-(3,4-difluoro-N-methylphenylsulfonamido)pyridin-3-yl)benzo[d]thiazol-2-yl)acetamide]",5.54,5.66,6.42,–
"CC(=O)Nc1nc2ccc(-c3cncc(N(C)S(=O)(=O)c4ccc(C(C)(C)C)cc4)c3)cc2s1 [Example 223, N-(6-(5-(4-tert-butyl-N-methylphenylsulfonamido)pyridin-3-yl)benzo[d]thiazol-2-yl)acetamide]",5.42,6.38,7.27,–
"CC(=O)Nc1nc2ccc(-c3cncc(N(C)S(=O)(=O)c4ccccc4)c3)cc2s1 [Example 224, N-(6-(5-(N-methylphenylsulfonamido)pyridin-3-yl)benzo[d]thiazol-2-yl)acetamide]",5.83,6.84,6.95,–
"CC(=O)Nc1nc2ccc(-c3cccc(N(C)S(=O)(=O)c4cccc(C)c4)n3)cc2s1 [Example 225, N-(6-(6-(N,3-dimethylphenylsulfonamido)pyridin-2-yl)benzo[d]thiazol-2-yl)acetamide]",6.53,6.61,7.19,–
"CC(=O)Nc1nc2ccc(-c3cncc(NS(=O)(=O)c4ccc(F)cc4)c3)nc2s1 [Example 228, N-(5-(5-(4-Fluorophenylsulfonamido)pyridin-3-yl)thiazolo[5,4-b]pyridin-2-yl)acetamide]",7.25,7.26,8.12,–
"CC(=O)Nc1nc2ccc(-c3cnc(Cl)c(O[C@H]4CCOC4)c3)cc2s1 [Example 236, N-(6-(6-chloro-5-((S)-tetrahydrofuran-3-yloxy)pyridin-3-yl)benzo[d]thiazol-2-yl)acetamide]",5.86,6.08,6.82,–
"CCOc1cc(-c2ccc3nc(NC(C)=O)sc3c2)cnc1Cl [Example 239, N-(6-(6-chloro-5-ethoxypyridin-3-yl)benzo[d]thiazol-2-yl)acetamide]",5.42,5.53,7.27,–
"COc1cc(-c2ccc3nc(NC(C)=O)sc3c2)cnc1Cl [Example 240, N-(6-(6-chloro-5-methoxypyridin-3-yl)benzo[d]thiazol-2-yl)acetamide]",5.89,6.19,6.81,–
"COc1ccncc1-c1ccc2nc(NC(C)=O)sc2c1 [Example 241, N-(6-(4-methoxypyridin-3-yl)benzo[d]thiazol-2-yl)acetamide]",4.97,6.09,7.13,–
"COc1ccc(-c2ccc3nc(NC(C)=O)sc3c2)cn1 [Example 242, N-(6-(6-methoxypyridin-3-yl)benzo[d]thiazol-2-yl)acetamide]",< 4.40,6.20,7.13,–
"CC(=O)Nc1nc2ccc(-c3cnc(Cl)c(OC(F)F)c3)cc2s1 [Example 247, N-(6-(6-chloro-5-(difluoromethoxy)pyridin-3-yl)benzo[d]thiazol-2-yl)acetamide]",6.61,7.03,7.71,–
"CC(=O)Nc1nc2ccc(-c3cnc(Cl)c(NS(=O)(=O)c4ccc(C(C)O)cc4)c3)cc2s1 (stereo not drawn) [Example 256, N-(6-(6-chloro-5-(4-(1-hydroxyethyl)phenylsulfonamido)pyridin-3-yl)benzo[d]thiazol-2-yl)acetamide]",8.14,8.00,8.28,–
"CC(=O)Nc1nc2ccc(-c3cncc(NS(=O)(=O)c4ccc(C(C)O)cc4)c3)cc2s1 (stereo not drawn) [Example 259, N-(6-(5-(4-(1-hydroxyethyl)phenylsulfonamido)pyridin-3-yl)benzo[d]thiazol-2-yl)acetamide]",7.49,6.41,7.92,–
"CC(=O)Nc1nc2ccc(-c3ccnc(NC4CCOCC4)n3)cc2s1 [Example 261, N-(6-(2-(tetrahydro-2H-pyran-4-ylamino)pyrimidin-4-yl)benzo[d]thiazol-2-yl)acetamide]",4.88,5.77,6.05,–
"COc1ccc(S(=O)(=O)Nc2cc(-c3ccc4nc(NC(C)=O)sc4c3)cnc2C#N)cc1 [Example 267, N-(6-(6-cyano-5-(4-methoxyphenylsulfonamido)pyridin-3-yl)benzo[d]thiazol-2-yl)acetamide]",7.68,5.84,7.84,–
"CC(=O)Nc1nc2ccc(-c3cnc(C#N)c(N)c3)cc2s1 [Example 268, N-(6-(5-amino-6-cyanopyridin-3-yl)benzo[d]thiazol-2-yl)acetamide]",4.77,6.07,6.62,–
"CC(=O)Nc1nc2ccc(-c3cnc(Cl)c(N(C)C)c3)cc2s1 [Example 269, N-(6-(6-Chloro-5-(dimethylamino)pyridin-3-yl)benzo[d]thiazol-2-yl)acetamide]",6.66,7.25,7.70,–
"CN(C)c1cc(-c2ccc3nc(NC(=O)Oc4ccccc4)sc3c2)cnc1Cl [Example 270, Phenyl 6-(6-chloro-5-(dimethylamino)pyridin-3-yl)benzo[d]thiazol-2-ylcarbamate]",5.61,–,7.46,< 5.30
"COCC(=O)Nc1nc2ccc(-c3cnc(Cl)c(N(C)C)c3)cc2s1 [Example 271, N-(6-(6-Chloro-5-(dimethylamino)pyridin-3-yl)benzo[d]thiazol-2-yl)-2-methoxyacetamide]",5.91,6.51,7.29,–
"CN(C)c1cc(-c2ccc3nc(NC(=O)COc4ccccc4)sc3c2)cnc1Cl [Example 272, N-(6-(6-chloro-5-(dimethylamino)pyridin-3-yl)benzo[d]thiazol-2-yl)-2-phenoxyacetamide]",5.84,< 5.30,7.23,–
"CN(C)c1cc(-c2ccc3nc(N)sc3c2)cnc1Cl [Example 274, 6-(6-Chloro-5-(dimethylamino)pyridin-3-yl)benzo[d]thiazol-2-amine]",6.21,6.01,6.72,–

# Reference: patent US7928140B2, “Benzothiazole PI3 kinase modulators for cancer treatment” (Amgen Inc., priority 2007, dated 2011)
